Results from US6849426B2, “Methods and reagents for detecting endotoxin” (Cambrex Bio Science Walkersville, Inc., priority 2001, dated 2005).

Tests used:
Type in all cases: biochemical
[1] = target: T1, recombinant Factor C (rFC) (Carcinoscorpius rotundicauda, UniProt Q26422); test: recombinant Factor C (rFC) assay with different detergents; details: for Detergent concentration range for rFC inhibition / Detergent concentration range for rFC enhancing: 1 EU/ml EC-6, DPR-coumarin substrate, 38° C., data after 30 minutes; for enhancing concentration range (narrow or wide): rFC assay
T1 construct: made in house; host or cells: Sf9 insect cells, baculovirus
T1 sequence (Q26422 26-1019): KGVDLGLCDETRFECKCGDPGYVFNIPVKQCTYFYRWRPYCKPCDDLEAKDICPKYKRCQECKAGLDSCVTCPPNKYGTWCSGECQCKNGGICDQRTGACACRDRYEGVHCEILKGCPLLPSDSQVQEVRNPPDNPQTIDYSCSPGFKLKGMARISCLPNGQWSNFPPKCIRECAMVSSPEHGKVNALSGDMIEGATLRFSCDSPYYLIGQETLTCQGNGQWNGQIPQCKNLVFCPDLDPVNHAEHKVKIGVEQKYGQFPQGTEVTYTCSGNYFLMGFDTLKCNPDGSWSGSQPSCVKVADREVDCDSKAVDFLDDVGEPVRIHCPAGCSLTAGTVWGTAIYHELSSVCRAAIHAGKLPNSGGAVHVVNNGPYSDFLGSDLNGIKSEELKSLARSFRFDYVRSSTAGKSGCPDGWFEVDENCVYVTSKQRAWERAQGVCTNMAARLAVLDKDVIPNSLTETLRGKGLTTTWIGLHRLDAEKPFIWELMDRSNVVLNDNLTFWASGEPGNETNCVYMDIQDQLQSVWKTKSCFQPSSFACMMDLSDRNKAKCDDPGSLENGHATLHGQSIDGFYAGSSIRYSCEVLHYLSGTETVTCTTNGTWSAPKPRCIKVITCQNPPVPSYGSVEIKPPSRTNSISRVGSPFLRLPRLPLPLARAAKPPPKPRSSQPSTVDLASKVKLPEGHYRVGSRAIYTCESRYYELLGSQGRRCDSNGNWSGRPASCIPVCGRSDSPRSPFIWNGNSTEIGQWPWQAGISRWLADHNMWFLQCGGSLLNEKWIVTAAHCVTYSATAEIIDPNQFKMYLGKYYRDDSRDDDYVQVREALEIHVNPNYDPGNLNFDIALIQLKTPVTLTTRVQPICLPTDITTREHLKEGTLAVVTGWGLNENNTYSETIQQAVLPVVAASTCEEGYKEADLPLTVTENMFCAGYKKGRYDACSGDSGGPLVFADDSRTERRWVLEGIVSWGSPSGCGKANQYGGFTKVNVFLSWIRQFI
Description: The recombinant Factor C (rFC) assay was carried out using 20 μl of each detergent (˜10× of final concentration), 150 μl of 1 EU/ml EC-6, 10 μl of rFC supernatant 031901I, 20 μl of 300 mM Tris, pH 8.0, and 20 μl of 0.55 mM DPR-coumarin substrate. The results of the assay were read at 38° C. using a Cytofluor reader set at 390/440 nm, 5 minutes per cycle, for 1 hour. The data were graphed after 30 minutes.

[2] = system: purified Limulus factor C; test: Limulus Factor C activity at different Zwittergent concentrations; details: FIG. 6; compared with recombinant Factor C assay
Description: The enhancing/inhibiting effect of Zwittergent 3-14 was also tested using purified Limulus factor C (FIG. 6).
We isolated the factor C from Limulus and generated antisera against the protein. The Limulus lysate was first separated with a S-100 gel filtration followed by cation-ion exchange column. The fractions were assayed for factor C activity using the N-t-BOC-Val-Pro-Arg 7-Amido-4-methyl coumarin substrate. The Limulus factor C was purified 73 fold with 80% homogeneity as determined by enzyme assay and SDS-PAGE. The molecular weight of Limulus factor C was 117 kDa by SDS-PAGE under non-reducing conditions. […] A specific polyclonal antibody against the Limulus factor C was generated in rabbits. The anti-factor C purified IgG inhibited the activation of factor C by LPS but had no effect on the protease activity once the factor C was activated by LPS.

Recombinant Factor C = target: T2, Recombinant Factor C (Carcinoscorpius rotundicauda, UniProt Q26422); test: one-step, 1-hour endpoint endotoxin assay with or without surfactant; details: assay buffer with or without 0.0125% Zwittergent; endotoxin 055:B5 0.01-10 EU/ml; FIG. 7
T2 construct: made in house; host or cells: Sf9 insect cells, baculovirus
T2 sequence (Q26422 26-1019): T1 sequence (Q26422 26-1019)
Description: A one-step, 1-hour endpoint assay was performed. Endotoxin 055:B5, 0.01, 0.1, 1, and 10 EU/ml were used for the standard curve. Blank and endotoxin standards (100 μl each) were added to a 96-well plate. […] This mixture was added into each blank and endotoxin standard. The fluorescence was recorded at time zero and time 1 hour. The difference in fluorescences (delta fluorescence) were normalized with the blank. Normalized delta fluorescence was then graphed against endotoxin concentration in a log-log scale. Each data point is the result of duplicate assays.

[3] = target: T3, recombinant Carcinoscorpius rotundicauda Factor C (Carcinoscorpius rotundicauda, UniProt Q26422); test: two-step and one-step endotoxin assay (Examples 1 and 13); details: assay of Examples 1 and 13
T3 construct: made in house; host or cells: Sf9 insect cells, baculovirus (pFASTBAC1 bacmid); culture supernatant used without purification
T3 sequence (Q26422 26-1019): T1 sequence (Q26422 26-1019)
Description: Endotoxin was pre-incubated with culture medium containing recombinant Carcinoscorpius rotundicauda Factor C obtained from recombinant Factor C-producing Sf9 cells for 1 hour in assay buffer (30 mM Tris, pH 8.0, 30 mM NaCl, 0.3% lactose, and 0.0025% Zwittergent 3-14). The substrate N-t-Boc-Asp(Obzl)-Pro-Arg-7-Amido-4-methyl coumarin (DPR-coumarin) was added to the mixture to a final concentration of […]. The fluorescence generated from the cleavage of the substrate by activated Factor C was measured after 15-20 minutes. Results of a similar assay carried out using the substrate N-t-Boc-Val-Pro-Arg-7-Amido-4-methyl coumarin at a final concentration of 100 mM are shown in FIG. 5.
A one-step endotoxin assay can be carried out in a 96-well plate, using 100 μl each of blank and endotoxin standards. […] The plate is incubated at 37° C. for 1 hour. Excitation and emission are read at 390 and 440 nm, respectively, in a fluorescence microplate reader.

Molecule	Detergent concentration range for rFC inhibition [1]	enhancing concentration range (narrow or wide) [1]	enhancing/inhibiting effect on purified Limulus factor C [2]	increase of endotoxin detection sensitivity when surfactant was included (Recombinant Factor C) [fold]	optimal concentration of the surfactant [3] [%]	Detergent concentration range for rFC enhancing [1]
CCCCCCCCS[C@@H]1O[C@H](CO)[C@@H](O)[C@H](O)[C@H]1O [OTG, octyl-beta-D-thioglucoside]	>=0.5%	narrow				
CCCCCCCCCCCCOS(=O)(=O)[O-].[Na+] [SDS]	>=0.0004%					
CCCCCCCCCCCCCC[N+](C)(C)CCCS(=O)(=O)[O-] [Zwittergent 3-14, N-tetradecyl-N,N-dimethyl-3-ammonio-1-propanesulfonate]	>=0.004%	narrow	A similar enhancing/inhibiting effect was observed	10	0.0025	
Triton X-100	>=0.008%	narrow				
polyoxyethylene (20) sorbitan monolaurate [Tween 20]	>0.5%	wide				0.001-0.5%
polyoxyethylene (20) sorbitan monooleate [Tween 80]	>0.25%	wide				0.001-0.25%
